Laboratory results published in patent US7297696B2, “Antagonists of MCP-1 function and methods of use thereof” (Telik, Inc., priority 2001, dated 2007).

Assays:
Type in all cases: in vivo
[1] = test system: ICR male mice; assay: Thioglycollate-induced inflammation model; conditions: peritoneal cavity, 96 h; 10 mg/kg subcutaneous at 0 h, 3 h and 16 hours
Description: 3% Brewer's thioglycollate broth (Difco, Detroit, Mich.) was injected into the petitoneal cavity of ICR male mice, followed by subcutaneous administration of the test compounds at the same dose after 0 h, 3 h and 16 hours. After 96 h, the number of total elicited cells and MOMA2-positive cells in the peritoneal cavity was analyzed using an EPICS XL Beckman Coulter.

[2] = test system: apoE-deficient mice; assay: Apolipoprotein E-deficient mouse model of atherosclerosis; conditions: 50 mg/kg as food admixture for 8 weeks, high-fat diet; percent of total cross-sectional wall area
Description: Apolipoprotein E (apoE) is a component of several plasma lipoproteins, including chylomicrons, VLDL, and HDL. Receptor-mediated catabolism of these lipoprotein particles is mediated through the interaction of apoE with the LDL receptor (LDLR) or with LDLR-related protein (LRP). […] The efficacy of the compounds of the present invention was also evaluated using this animal model.
Male, 4 week-old apoE-deficient mice were fed on high-fat diet (15% fat, 1.25% cholesterol). The test compound was administered as food admixture for 8 weeks. At 12 weeks old, the mice were fasted for 4 hours and then sacrificed under ether anesthesia. […]
To determine cross-sectional lesion areas, the hearts were embedded in OCT compound and sectioned at 10 μm using cryostat. The sections were stained with oil red O. Each section of the aortic valve was evaluated for oil red O staining by capturing images directly from a RGB camera attached to a light microscope; image analysis was performed with the IPAP-WIN software (Sumika Tekno, Japan). Five sections were examined for each animal, and the sum of the lesion areas was calculated and expressed as the percent of the total cross-sectional wall area. Total cholesterol was determined with a Determiner assay kit (Kyowa Medex, Japan).

[3] = test system: male ICR mice; assay: Caerulein-induced pancreatitis; conditions: 20 mg/kg orally after caerulein injection, then at 3 h and 6 h; blood after 15 h
Description: Caerulein was injected intraperitoneally to male ICR mice every 1 h for 6 h. The test compound was given orally immediately after the caerulein injection, and then again at 3 h and 6 h. After 15 h, the mice were sacrificed and their blood was collected and analyzed for serum amylase activity as a marker of pancreatitis.

SMILES	MOMA2-positive Cells [1]	Total Cells [1]	% Atherosclerotic Lesion (mean ± SD) [2] [%]	Serum Amylase Level (U, Caraway, mean ± SD) [3]
O=C(O)COc1ccc(NC(=O)NC(=O)c2ccc3c(c2)OCCO3)cc1Cl [Compound 55, 2-(4-{[(2H,3H-Benzo[e]1,4-dioxan-6-ylcarbonylamino)carbonyl]amino}-2-chlorophenoxy)acetic acid]	10.1 ± 1.5 ×10^6	14.1 ± 1.6 ×10^6	17.80 ± 3.43	–
O=C(NC(=O)c1ccc2c(c1)OCCO2)Nc1ccc(C(=O)[O-])c(Cl)c1.[Na+] [Compound 57, Sodium 4-{[(2H,3H-benzo[e]1,4-dioxan-6-ylcarbonylamino)carbonyl]amino}-2-chlorobenzoate]	–	–	–	551 ± 157 U, Caraway
O=C(NC(=O)c1ccc2c(c1)OCCO2)Nc1ccc(C(=O)[O-])cc1.[Na+] [Compound 59, Sodium 4-{[(2H,3H-benzo[3,4-e]1,4-dioxin-6-ylcarbonylamino)carbonyl]amino}benzoate]	13.2 ± 1.4 ×10^6	17.3 ± 1.7 ×10^6	21.08 ± 6.86	–
